The text below walks through data of patent publication US20240270698A2, “NOVEL PYRIMIDINE DERIVATIVE AND USE THEREOF” (KOREA RESEARCH INSTITUTE OF CHEMICAL TECHNOLOGY, priority 2019, published 2024).

Series [1] has as its target T1, human recombinant MLK3 protein (Homo sapiens, UniProt Q16584).
T1 construct: purchased Eurofins
Nature of the series: MLK3 kinase activity assay (Eurofins, gamma-33P-ATP, filtermat scintillation counting). The series is classed as biochemical. The following applies: human recombinant MLK3, 120 minutes at room temperature. As to the method:
(§1) Compounds 1 to 119 synthesized in Example 1 according to the present disclosure were assayed for inhibitory activity against MLK3/LRRK2 enzymes and anticancer activity against HepG2/HS746T cancer cells, and the results are summarized in Table 1, below.
(§2) Inhibitory activity against MLK3 and LRRK2 enzymes was evaluated in Eurofins. In brief, human recombinant MLK3 protein was mixed with the compounds in a reaction buffer (8 mM MOPS (pH 7.0), 0.2 mM EDTA, 0.33 mg/mL myelin basic protein, 5 mM DTT) to which a mixture of 10 mM magnesium acetate and gamma-33P-ATP was then added before incubation at room temperature for 120 minutes. Afterward, the reaction was terminated with 0.5% phosphoric acid. Ten μL of the total mixture was spotted onto a P30 filtermat which was then washed four times for 4 minutes with 0.425% phosphoric acid and once in methanol prior to scintillation counting. Values for the activity of MLK3 were expressed as % of the control. For the activity of LRRK2, human recombinant LRRK2 protein was mixed with the compounds in a reaction buffer (50 mM HEPES (pH 8.0), 0.2 mM EDTA, 0.01% Brij-35, 1% (w/v) BSA, 5 mM DTT, 250 uM substrate peptide RLGRDKYKTLRQIRQ) and then reacted with a mixture of 10 mM magnesium acetate and gamma-33P-ATP at room temperature for 40 minutes. Afterward, the reaction was terminated with 0.5% phosphoric acid. Ten μL of the total mixture was spotted onto a P30 filtermat which was then washed four times for 4 minutes with 0.425% phosphoric acid and once in methanol prior to scintillation counting. Values for the activity of LRRK2 were expressed as % of the control.

A further series relates to HS746T cancer cells. The experiment in a line: Anticancer activity, cell viability by CCK-8, HS746T. It counts as cell-based. The following applies: 72 hours. How it is done:
(§3) Compounds 1 to 119 synthesized in Example 1 according to the present disclosure were assayed for inhibitory activity against MLK3/LRRK2 enzymes and anticancer activity against HepG2/H[…] cancer cells, and the results are summarized in Table 1, below. Assay for anticancer activity was conducted as follows. HepG2 and H[…] cancer cells were purchased from the Korean Cell Line Bank and cultured according to the instruction provided thereby. One hundred μL of a culture of the cells were seeded at a density of 4,000 cells/well into 96-well plates. After 24 hours, the cells were treated with the compounds for 72 hours. Then, cell viability was assayed using CCK-8 and expressed as % of the control.

Series [2] concerns the target T2, human recombinant LRRK2 protein (Homo sapiens, UniProt Q5S007).
T2 construct: purchased Eurofins
The experiment in a line: LRRK2 kinase activity assay (Eurofins, gamma-33P-ATP, filtermat scintillation counting). The note with it: human recombinant LRRK2, 40 minutes at room temperature. The series is classed as biochemical. How it is done: as §1, §2

The subject of the next series is HepG2 cancer cells. The experiment in a line: Anticancer activity, cell viability by CCK-8, HepG2. The series is classed as cell-based. The following applies: HepG2, 10 μM, 72 hours. How it is done:
as §3

pIC50: −log10 of the molar value.

T1 sequence (Q16584 whole entry): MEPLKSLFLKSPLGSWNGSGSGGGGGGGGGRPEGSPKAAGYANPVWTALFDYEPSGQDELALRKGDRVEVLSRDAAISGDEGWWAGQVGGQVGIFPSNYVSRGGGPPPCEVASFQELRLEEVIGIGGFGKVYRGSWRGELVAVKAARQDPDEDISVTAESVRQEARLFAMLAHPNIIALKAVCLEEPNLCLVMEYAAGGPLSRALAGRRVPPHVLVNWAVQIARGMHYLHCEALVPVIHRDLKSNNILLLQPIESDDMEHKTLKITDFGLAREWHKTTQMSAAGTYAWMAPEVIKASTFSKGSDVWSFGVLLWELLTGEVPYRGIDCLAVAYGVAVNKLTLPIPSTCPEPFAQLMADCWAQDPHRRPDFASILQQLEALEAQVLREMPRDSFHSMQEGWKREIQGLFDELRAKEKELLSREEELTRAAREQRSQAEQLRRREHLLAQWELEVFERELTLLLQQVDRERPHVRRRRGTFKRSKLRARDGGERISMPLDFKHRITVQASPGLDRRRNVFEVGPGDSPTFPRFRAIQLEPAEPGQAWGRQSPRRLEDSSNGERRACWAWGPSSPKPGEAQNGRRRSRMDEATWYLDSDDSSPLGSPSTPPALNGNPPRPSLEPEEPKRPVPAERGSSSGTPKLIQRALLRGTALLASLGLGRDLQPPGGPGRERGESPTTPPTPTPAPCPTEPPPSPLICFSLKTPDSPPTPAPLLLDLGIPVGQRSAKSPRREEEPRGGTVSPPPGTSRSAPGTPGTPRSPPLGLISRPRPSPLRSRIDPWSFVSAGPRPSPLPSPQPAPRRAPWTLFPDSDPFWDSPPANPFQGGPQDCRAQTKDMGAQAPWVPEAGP
T2 sequence (Q5S007 whole entry): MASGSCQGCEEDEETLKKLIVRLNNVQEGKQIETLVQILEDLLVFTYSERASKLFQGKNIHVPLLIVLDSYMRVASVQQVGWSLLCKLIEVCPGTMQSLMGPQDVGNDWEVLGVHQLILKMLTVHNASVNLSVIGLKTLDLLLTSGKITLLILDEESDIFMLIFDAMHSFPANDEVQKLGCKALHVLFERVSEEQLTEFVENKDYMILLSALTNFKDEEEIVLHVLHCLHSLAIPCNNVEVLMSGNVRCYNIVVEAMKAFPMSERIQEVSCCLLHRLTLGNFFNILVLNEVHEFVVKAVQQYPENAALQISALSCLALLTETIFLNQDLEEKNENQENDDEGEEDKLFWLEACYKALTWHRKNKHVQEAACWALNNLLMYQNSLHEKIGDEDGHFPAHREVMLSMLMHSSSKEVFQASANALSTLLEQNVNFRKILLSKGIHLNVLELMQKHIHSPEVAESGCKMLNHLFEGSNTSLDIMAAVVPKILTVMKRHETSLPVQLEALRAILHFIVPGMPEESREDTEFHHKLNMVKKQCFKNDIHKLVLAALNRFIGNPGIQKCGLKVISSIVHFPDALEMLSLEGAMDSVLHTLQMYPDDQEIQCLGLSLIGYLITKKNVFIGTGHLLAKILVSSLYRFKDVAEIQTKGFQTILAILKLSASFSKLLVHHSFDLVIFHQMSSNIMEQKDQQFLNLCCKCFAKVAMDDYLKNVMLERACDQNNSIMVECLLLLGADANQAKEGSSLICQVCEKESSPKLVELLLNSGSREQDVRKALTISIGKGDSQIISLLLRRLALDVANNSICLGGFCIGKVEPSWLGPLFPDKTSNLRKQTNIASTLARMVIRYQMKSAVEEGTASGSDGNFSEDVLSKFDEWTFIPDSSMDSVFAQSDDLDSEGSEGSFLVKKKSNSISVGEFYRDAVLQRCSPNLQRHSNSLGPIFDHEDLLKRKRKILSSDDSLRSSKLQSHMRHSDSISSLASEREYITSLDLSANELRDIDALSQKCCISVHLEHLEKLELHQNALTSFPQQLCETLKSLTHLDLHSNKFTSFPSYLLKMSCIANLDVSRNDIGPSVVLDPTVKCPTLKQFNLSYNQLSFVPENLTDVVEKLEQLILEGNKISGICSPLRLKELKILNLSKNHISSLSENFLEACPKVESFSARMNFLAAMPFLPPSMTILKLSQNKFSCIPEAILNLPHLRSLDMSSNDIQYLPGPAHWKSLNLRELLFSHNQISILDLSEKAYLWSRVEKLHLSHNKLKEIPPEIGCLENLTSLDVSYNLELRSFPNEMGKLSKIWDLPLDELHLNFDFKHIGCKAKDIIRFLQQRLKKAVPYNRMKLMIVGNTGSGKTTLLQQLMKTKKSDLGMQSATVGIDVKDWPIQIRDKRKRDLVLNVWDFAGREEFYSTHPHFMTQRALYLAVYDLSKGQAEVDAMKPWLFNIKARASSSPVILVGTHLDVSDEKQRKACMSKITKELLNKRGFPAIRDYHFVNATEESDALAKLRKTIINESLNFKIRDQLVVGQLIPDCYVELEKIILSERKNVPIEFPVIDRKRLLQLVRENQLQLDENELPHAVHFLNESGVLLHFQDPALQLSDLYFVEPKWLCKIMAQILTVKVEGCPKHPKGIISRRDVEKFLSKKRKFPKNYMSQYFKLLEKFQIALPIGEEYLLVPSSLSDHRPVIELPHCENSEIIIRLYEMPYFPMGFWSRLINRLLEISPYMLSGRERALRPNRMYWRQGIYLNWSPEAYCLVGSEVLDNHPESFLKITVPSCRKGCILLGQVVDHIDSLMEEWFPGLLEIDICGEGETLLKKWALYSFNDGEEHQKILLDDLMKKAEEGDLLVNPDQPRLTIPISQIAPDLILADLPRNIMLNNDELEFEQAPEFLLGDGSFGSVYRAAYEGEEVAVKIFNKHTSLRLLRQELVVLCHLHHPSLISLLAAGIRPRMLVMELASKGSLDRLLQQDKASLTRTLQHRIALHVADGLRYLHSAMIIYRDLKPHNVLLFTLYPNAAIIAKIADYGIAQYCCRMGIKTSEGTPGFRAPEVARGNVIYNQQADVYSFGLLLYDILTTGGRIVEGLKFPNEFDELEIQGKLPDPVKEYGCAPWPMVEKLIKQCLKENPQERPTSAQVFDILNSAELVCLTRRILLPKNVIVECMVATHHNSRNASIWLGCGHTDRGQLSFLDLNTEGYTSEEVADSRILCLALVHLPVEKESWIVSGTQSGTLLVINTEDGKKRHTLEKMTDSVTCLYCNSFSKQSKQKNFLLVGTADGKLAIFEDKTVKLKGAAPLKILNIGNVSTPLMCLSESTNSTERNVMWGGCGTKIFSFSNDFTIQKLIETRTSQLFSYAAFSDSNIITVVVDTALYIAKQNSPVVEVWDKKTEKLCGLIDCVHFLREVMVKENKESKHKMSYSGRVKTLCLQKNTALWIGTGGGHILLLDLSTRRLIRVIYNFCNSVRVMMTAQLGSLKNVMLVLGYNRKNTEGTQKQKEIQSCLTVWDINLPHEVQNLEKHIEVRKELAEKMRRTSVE

In the case of `CC1(C)CNCc2cc(Nc3ncc(Cl)c(Nc4ccccc4P(C)(C)=O)n3)ccc21` [compound 52, (2-((5-Chloro-2-((4,4-dimethyl-1,2,3,4-tetrahydroisoquinolin-7-yl)amino)pyrimidin-4-yl)amino)phenyl)dimethylphosphine oxide], the pIC50 in series [1] and in series [2] was 8.00 to 9.00 each time. Further, in the series with HS746T cancer cells, the “Cell viability (% of Con. 10 μM) HS746T” value is 1 % of Con. The “Cell viability (% of Con. 10 μM) HepG2” value in the series with HepG2 cancer cells is recorded as 21 % of Con.

For `CC(C)C1c2cc(Nc3ncc(Cl)c(Nc4ccccc4P(C)(C)=O)n3)ccc2CCN1C(=O)C(F)(F)F` (centres unmarked) [compound 53, 1-(7-((5-Chloro-4-((2-(dimethylphosphoryl)phenyl)amino)pyrimidin-2-yl)amino)-1-isopropyl-3,4-dihydroisoquinolin-2(1H)-yl)-2,2,2-trifluoroethan-1-one], the pIC50 in series [1] and in series [2] was 8.00 to 9.00 each time. Also, the “Cell viability (% of Con. 10 μM) HS746T” value in the series on HS746T cancer cells is 14 % of Con. In addition, the “Cell viability (% of Con. 10 μM) HepG2” value in the series on HepG2 cancer cells is on record as 23 % of Con.

For `CC1c2cc(Nc3ncc(Cl)c(Nc4ccccc4P(C)(C)=O)n3)ccc2CCN1C(=O)C(F)(F)F` (centres unmarked) [compound 54, 1-(7-((5-Chloro-4-((2-(dimethylphosphoryl)phenyl)amino)pyrimidin-2-yl)amino)-1-methyl-3,4-dihydroisoquinolin-2(1H)-yl)-2,2,2-trifluoroethan-1-one], the pIC50 in series [1] and in series [2] was 8.00 to 9.00 each time. In addition, the “Cell viability (% of Con. 10 μM) HS746T” value with HS746T cancer cells is 4 % of Con. Also, in the series on HepG2 cancer cells, the “Cell viability (% of Con. 10 μM) HepG2” value is given as 17 % of Con.

In the case of `CC(C)C1NCCc2ccc(Nc3ncc(Cl)c(Nc4ccccc4P(C)(C)=O)n3)cc21` (centres unmarked) [compound 55, (2-((5-Chloro-2-((1-isopropyl-1,2,3,4-tetrahydroisoquinolin-7-yl)amino)pyrimidin-4-yl)amino)phenyl)dimethylphosphine oxide], the pIC50 in series [1] and in series [2] was 8.00 to 9.00 throughout. Moreover, the “Cell viability (% of Con. 10 μM) HS746T” value in the series on HS746T cancer cells was 2 % of Con. Further, the “Cell viability (% of Con. 10 μM) HepG2” value in the series on HepG2 cancer cells is 19 % of Con.

Turning to `CC(C)C1c2cc(Nc3ncc(F)c(NC4CCN(S(C)(=O)=O)CC4)n3)ccc2CCN1C(=O)C(F)(F)F` (centres unmarked) [compound 58, 2,2,2-Trifluoro-1-(7-((5-fluoro-4-((1-(methylsulfonyl)piperidin-4-yl)amino)pyrimidin-2-yl)amino)-1-isopropyl-3,4-dihydroisoquinolin-2(1H)-yl)ethan-1-one], the pIC50 in series [1] is less than 6.00; in series [2], 6.00 to 7.00. In the series with HS746T cancer cells, the “Cell viability (% of Con. 10 μM) HS746T” value is given as 85 % of Con. Moreover, in the series with HepG2 cancer cells, the “Cell viability (% of Con. 10 μM) HepG2” value was 83 % of Con.

As to `COc1cc2c(cc1Nc1ncc(Cl)c(Nc3ccccc3P(C)(C)=O)n1)CN(C(=O)C(F)(F)F)CC2` [compound 62, 1-(7-((5-chloro-4-((2-(dimethylphosphoryl)phenyl)amino)pyrimidin-2-yl)amino)-6-methoxy-3,4-dihydroisoquinolin-2(1H)-yl)-2,2,2-trifluoroethan-1-one], the pIC50 in series [1] and in series [2] was 8.00 to 9.00 in each case. In the series with HS746T cancer cells, the “Cell viability (% of Con. 10 μM) HS746T” value was 13 % of Con. Also, in the series with HepG2 cancer cells, the “Cell viability (% of Con. 10 μM) HepG2” value is recorded as 26 % of Con.

Consider `CP(C)(=O)c1ccccc1Nc1nc(Nc2ccc3cn[nH]c3c2)ncc1Cl` [compound 64, (2-((2-((1H-Indazol-6-yl)amino)-5-chloropyrimidin-4-yl)amino)phenyl)dimethylphosphine oxide], for which the pIC50 in series [1] and in series [2] was 8.00 to 9.00 throughout. In the series with HS746T cancer cells, the “Cell viability (% of Con. 10 μM) HS746T” value was 29 % of Con. Besides, in the series with HepG2 cancer cells, the “Cell viability (% of Con. 10 μM) HepG2” value was 23 % of Con.

As to `CP(C)(=O)c1ccccc1Nc1nc(Nc2ccc3[nH]ccc3c2)ncc1Cl` [compound 65, (2-((2-((1H-Indol-5-yl)amino)-5-chloropyrimidin-4-yl)amino)phenyl)dimethylphosphine oxide], the pIC50 in series [1] and in series [2] was 8.00 to 9.00 each time. For the same compound, in the series on HS746T cancer cells, the “Cell viability (% of Con. 10 μM) HS746T” value is recorded as 23 % of Con. For the same compound, in the series with HepG2 cancer cells, the “Cell viability (% of Con. 10 μM) HepG2” value is recorded as 20 % of Con.

As to `CP(C)(=O)c1ccccc1Nc1nc(Nc2ccc3[nH]ncc3c2)ncc1Cl` [compound 66, (2-((2-((1H-Indazol-5-yl)amino)-5-chloropyrimidin-4-yl)amino)phenyl)dimethylphosphine oxide], the pIC50 in series [1] and in series [2] was 8.00 to 9.00 each time. In the series on HS746T cancer cells, the “Cell viability (% of Con. 10 μM) HS746T” value was 22 % of Con. Further, the “Cell viability (% of Con. 10 μM) HepG2” value with HepG2 cancer cells is reported as 31 % of Con.

For `CP(C)(=O)c1ccccc1Nc1nc(Nc2ccc3[nH]nc(Br)c3c2)ncc1Cl` [compound 67, (2-((2-((3-Bromo-1H-indazol-5-yl)amino)-5-chloropyrimidin-4-yl)amino)phenyl)dimethylphosphine oxide], the pIC50 in series [1] and in series [2] was 8.00 to 9.00 throughout. Besides, the “Cell viability (% of Con. 10 μM) HS746T” value in the series with HS746T cancer cells is listed as 25 % of Con. In the series with HepG2 cancer cells, the “Cell viability (% of Con. 10 μM) HepG2” value was 33 % of Con.

Take `CP(C)(=O)c1ccccc1Nc1nc(Nc2cccc3[nH]ccc23)ncc1Cl` [compound 68, (2-((2-((1H-Indol-4-yl)amino)-5-chloropyrimidin-4-yl)amino)phenyl)dimethylphosphine oxide]: the pIC50 in series [1] was 7.00 to 8.00; in series [2], 8.00 to 9.00. Further, the “Cell viability (% of Con. 10 μM) HS746T” value in the series on HS746T cancer cells is 64 % of Con. In addition, in the series with HepG2 cancer cells, the “Cell viability (% of Con. 10 μM) HepG2” value is reported as 43 % of Con.

Regarding `Cc1cc2cc(Nc3ncc(Cl)c(Nc4ccccc4P(C)(C)=O)n3)ccc2[nH]1` [compound 69, (2-((5-Chloro-2-((2-methyl-1H-indol-5-yl)amino)pyrimidin-4-yl)amino)phenyl)dimethylphosphine oxide], the pIC50 in series [1] and in series [2] was 8.00 to 9.00 each time. Moreover, the “Cell viability (% of Con. 10 μM) HS746T” value with HS746T cancer cells is 23 % of Con. The “Cell viability (% of Con. 10 μM) HepG2” value with HepG2 cancer cells is 29 % of Con.

For the compound `Cc1ccc(Nc2ncc(Cl)c(Nc3ccccc3P(C)(C)=O)n2)c2[nH]cc(C#N)c12` [compound 70, 7-((5-chloro-4-((2-(dimethylphosphoryl)phenyl)amino)pyrimidin-2-yl)amino)-4-methyl-1H-indole-3-carbonitrile], the pIC50 was 7.00 to 8.00 in series [1] and 8.00 to 9.00 in series [2]. Also, the “Cell viability (% of Con. 10 μM) HS746T” value with HS746T cancer cells is listed as 25 % of Con. The “Cell viability (% of Con. 10 μM) HepG2” value in the series on HepG2 cancer cells is 30 % of Con.

Regarding `CP(C)(=O)c1ccccc1Nc1nc(Nc2cccc3cc[nH]c23)ncc1Cl` [compound 71, (2-((2-((1H-Indol-7-yl)amino)-5-chloropyrimidin-4-yl)amino)phenyl)dimethylphosphine oxide], the pIC50 in series [1] is 7.00 to 8.00; in series [2], 8.00 to 9.00. Moreover, the “Cell viability (% of Con. 10 μM) HS746T” value in the series on HS746T cancer cells is 83 % of Con. In addition, the “Cell viability (% of Con. 10 μM) HepG2” value in the series on HepG2 cancer cells is listed as 63 % of Con.

Regarding `CP(C)(=O)c1ccccc1Nc1nc(Nc2ccc3c(c2)CN(C(=O)C(F)(F)F)C3)ncc1Cl` [compound 72, 1-(5-((5-Chloro-4-((2-(dimethylphosphoryl)phenyl)amino)pyrimidin-2-yl)amino)isoindolin-2-yl)-2,2,2-trifluoroethan-1-one], the pIC50 was 7.00 to 8.00 in series [1] and 8.00 to 9.00 in series [2]. The “Cell viability (% of Con. 10 μM) HS746T” value in the series on HS746T cancer cells is listed as 9 % of Con. Also, the “Cell viability (% of Con. 10 μM) HepG2” value in the series on HepG2 cancer cells is reported as 35 % of Con.

Consider `CP(C)(=O)c1ccccc1Nc1nc(Nc2ccc3c(c2)CNC3)ncc1Cl` [compound 73, (2-((5-Chloro-2-(isoindolin-5-ylamino)pyrimidin-4-yl)amino)phenyl)dimethylphosphine oxide], for which the pIC50 in series [1] and in series [2] was 8.00 to 9.00 in each case. The “Cell viability (% of Con. 10 μM) HS746T” value in the series on HS746T cancer cells is on record as 0.5 % of Con. The “Cell viability (% of Con. 10 μM) HepG2” value in the series on HepG2 cancer cells was 19 % of Con.

As to `CP(C)(=O)c1ccccc1Nc1nc(Nc2ccc3[nH]c(C(F)(F)F)nc3c2)ncc1Cl` [compound 75, (2-((5-Chloro-2-((2-(trifluoromethyl)-1H-benzo[d]imidazol-5-yl)amino)pyrimidin-4-yl)amino)phenyl)dimethylphosphine oxide], the pIC50 in series [1] was 7.00 to 8.00; in series [2] it was 8.00 to 9.00. The “Cell viability (% of Con. 10 μM) HS746T” value with HS746T cancer cells is listed as 21 % of Con. In addition, the “Cell viability (% of Con. 10 μM) HepG2” value with HepG2 cancer cells was 28 % of Con.

As a reminder, the pIC50 is the IC50 on a negative log10 scale, so that one unit is a factor of ten.
